Measurements as given in patent US9656981B2, “Peripherally-acting cannabinoid receptor agonists for chronic pain” (The Regents of the University of California, priority 2012, dated 2017).
Like-named read-outs stand apart in the source and are kept apart here.

Columns and labels:
CB1R = CB1R (Homo sapiens, UniProt P21554); test: CB1R radioligand displacement binding assay (CP55940 radioligand)
Procedure: Heterologous competition binding assays were performed to calculate receptor affinities. Unlabeled SR141716 or SR144528 were used as appropriate controls for non-specific binding (NSB) in the assay. Calculation of the equilibrium dissociation constant (Ki) was performed using the Cheng-Prusoff equation.

CB2R = CB2R (Homo sapiens, UniProt P34972); test: CB2R radioligand displacement binding assay (CP55940 radioligand)
Chain of CB2R (P34972 whole entry): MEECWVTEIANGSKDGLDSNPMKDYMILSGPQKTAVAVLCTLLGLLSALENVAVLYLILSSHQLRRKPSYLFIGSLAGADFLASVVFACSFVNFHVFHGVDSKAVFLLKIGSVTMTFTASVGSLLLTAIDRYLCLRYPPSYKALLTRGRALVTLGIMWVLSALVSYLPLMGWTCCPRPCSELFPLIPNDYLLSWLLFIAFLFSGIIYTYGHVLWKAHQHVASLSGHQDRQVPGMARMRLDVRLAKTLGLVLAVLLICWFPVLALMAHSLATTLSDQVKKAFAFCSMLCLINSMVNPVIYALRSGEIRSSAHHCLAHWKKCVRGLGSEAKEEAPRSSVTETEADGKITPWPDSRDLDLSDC
Procedure: Detailed radioligand displacement assays (using the well-characterized CBR agonist […] as the radioligand) were conducted to determine the affinity (Ki) of the test compounds for CB1R and CB2R as has been previously described by our group^112,113. Heterologous competition binding assays were performed to calculate receptor affinities. Unlabeled SR141716 or SR144528 were used as appropriate controls for non-specific binding (NSB) in the assay. Calculation of the equilibrium dissociation constant (Ki) was performed using the Cheng-Prusoff equation.

[1] = Table 1, CP55940 radioligand, read-out: CB1_KI_CP

Chain of CB1R (P21554 whole entry): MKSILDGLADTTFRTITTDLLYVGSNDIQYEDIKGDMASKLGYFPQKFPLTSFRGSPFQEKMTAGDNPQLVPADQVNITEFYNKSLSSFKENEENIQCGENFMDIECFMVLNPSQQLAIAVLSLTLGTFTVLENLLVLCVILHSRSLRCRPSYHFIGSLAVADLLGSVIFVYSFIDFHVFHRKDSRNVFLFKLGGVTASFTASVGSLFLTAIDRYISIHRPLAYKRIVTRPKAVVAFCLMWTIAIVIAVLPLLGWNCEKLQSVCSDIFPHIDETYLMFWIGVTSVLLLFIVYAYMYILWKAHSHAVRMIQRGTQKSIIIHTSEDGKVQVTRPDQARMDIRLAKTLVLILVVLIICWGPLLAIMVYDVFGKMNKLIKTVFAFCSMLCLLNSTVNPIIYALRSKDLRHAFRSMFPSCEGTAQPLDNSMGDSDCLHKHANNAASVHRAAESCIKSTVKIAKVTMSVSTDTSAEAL

## CCCCCn1cc(C(=O)c2cccc3ccccc23)c2ccccc21 [Compound 1, 3-(naphthalene-1-carbonyl)-1-pentyl-1H-indole, reference compound]
CB1R; [1]
  Ki: 4.31 nM
CB2R
  Ki: 7.38 nM

## C1=C(CCN2CCOCC2)c2ccccc2/C1=C/c1ccc2c3c(cccc13)CC2 [Compound 12, 4-{2-[(1E)-1-(1,2-dihydroacenaphth-ylen-5-ylmethylidene)-1H-inden-3-yl]ethyl} morpholine]
CB1R; read-out: CB1R binding affinity (Ki)
  Ki: 15.9 nM
CB2R; Table 1, CP55940 radioligand, read-out: CB2_KI_CP
  Ki: 4.22 nM

## C1=C(CCN2CCOCC2)c2ccccc2/C1=C/c1cccc2ccc3ccccc3c12 [Compound 13, 4-{2-[(1E)-1-(phenanthren-4-ylmethylidene)-1H-inden-3-yl]ethyl} morpholine]
CB1R; [1]
  Ki: 22.9 nM
CB2R
  Ki: 6 nM

## C1=C(CCN2CCOCC2)c2ccccc2/C1=C/c1ccnc2ccccc12 [Compound 14, 4-{[(1E)-3-[2-(morpholin-4-yl)ethyl]-1H-inden-1-ylidene]methyl} quinoline]
CB1R
  Ki: 23 nM
CB1R; [1]
  Ki: 23.3 nM
CB2R
  Ki: 12.1 nM

## CC1=C(CCN2CCOCC2)c2ccccc2/C1=C/c1cccc2ccccc12 [Compound 15, 4-{2-[(1E)-2-methyl-1-(naphthalen-1-ylmethylidene)-1H-inden-3-yl]ethyl} morpholine]
CB2R
  Ki: 2.84 nM

## C1=C(CCN2CCOCC2)c2ccccc2/C1=C/c1ccccc1-c1ccccc1 [Compound 16, 4-{2-[(1E)-1-[(2-phenylphenyl)methylidene]-1H-inden-3-yl]ethyl} morpholine]
CB1R; [1]
  Ki: 82.9 nM
CB2R
  Ki: 15.3 nM

## C1=C(CCN2CCOCC2)c2ccccc2/C1=C/c1cccc2cc[nH]c12 [Compound 17, 7-{[(1E)-3-[2-(morpholin-4-yl)ethyl]-1H-inden-1-ylidene]methyl}-1H-indole]
CB1R; [1]
  Ki: 107 nM
CB2R
  Ki: 8.7 nM

## COc1ccccc1/C=C1\C=C(CCN2CCOCC2)c2ccccc21 [Compound 18, 4-{2-[(1E)-1-[(2-methoxyphenyl)meth-ylidene]-1H-inden-3-yl]ethyl} morpholine]
CB1R; [1]
  Ki: 149 nM
CB2R
  Ki: 29.8 nM

## CCCCCC1=C/C(=C\c2cccc3ccccc23)c2ccccc21 [Compound 19, 1-{[(1E)-3-pentyl-1H-inden-1-ylidene]methyl} naphthalene, reference compound]
CB1R; [1]
  Ki: 17.2 nM
CB2R
  Ki: 163 nM

## C1=C(CCN2CCOCC2)c2ccccc2/C1=C/c1ccc2ccccc2c1 [Compound 20, 4-{2-[(1E)-1-(naphthalen-2-ylmethylidene)-1H-inden-3-yl]ethyl} morpholine]
CB1R; [1]
  Ki: 134 nM
CB2R
  Ki: 24.4 nM

## CCCCCCC1=C/C(=C\c2cccc3ccccc23)c2ccccc21 [Compound 21, 1-{[(1E)-3-hexyl-1H-inden-1-ylidene]methyl} naphthalene]
CB2R
  Ki: 1450 nM

## C1=C(CCN2CCOCC2)c2ccccc2/C1=C/c1cccc2cnccc12 [Compound 22, 5-{[(1E)-3-[2-(morpholin-4-yl)ethyl]-1H-inden-1-ylidene]methyl} isoquinoline]
CB1R; [1]
  Ki: 454 nM
CB2R
  Ki: 51.4 nM

## Ic1ccccc1/C=C1\C=C(CCN2CCOCC2)c2ccccc21 [Compound 23, 4-{2-[(1E)-1-[(2-iodophenyl)methyl-idene]-1H-inden-3-yl]ethyl} morpholine]
CB1R; [1]
  Ki: 607 nM
CB2R
  Ki: 109 nM

## Cc1ccccc1/C=C1\C=C(CCN2CCOCC2)c2ccccc21 [Compound 24, 4-{2-[(1E)-1-[(2-methylphenyl)methylidene]-1H-inden-3-yl]ethyl} morpholine]
CB1R; [1]
  Ki: 623 nM
CB2R
  Ki: 95.4 nM

## Brc1ccccc1/C=C1\C=C(CCN2CCOCC2)c2ccccc21 [Compound 25, 4-{2-[(1E)-1-[(2-bromophenyl)methylidene]-1H-inden-3-yl]ethyl} morpholine]
CB1R; [1]
  Ki: 647 nM
CB2R
  Ki: 206 nM

## Clc1ccccc1/C=C1\C=C(CCN2CCOCC2)c2ccccc21 [Compound 26, 4-{2-[(1E)-1-[(2-chlorophenyl)methylidene]-1H-inden-3-yl]ethyl} morpholine]
CB1R; [1]
  Ki: 862 nM

## Fc1ccccc1/C=C1\C=C(CCN2CCOCC2)c2ccccc21 [Compound 28, 4-{2-[(1E)-1-[(2-fluorophenyl)methylidene]-1H-inden-3-yl]ethyl} morpholine]
CB1R; [1]
  Ki: 1000 nM
CB2R
  Ki: 429 nM

## C1=C(CCN2CCOCC2)c2ccccc2/C1=C/c1ccccc1 [Compound 29, 4-{2-[(1E)-1-(phenyl-methylidene)-1H-inden-3-yl]ethyl} morpholine]
CB1R; [1]
  Ki: 1300 nM
CB2R
  Ki: 295 nM

## C1=C(CCN2CCOCC2)c2ccccc2/C1=C/c1cccs1 [Compound 30, 4-{2-[(1E)-1-(thiophen-2-ylmethylidene)-1H-indene-3-yl]ethyl} morpholine]
CB1R; [1]
  Ki: 8530 nM
CB2R
  Ki: 3020 nM

## C1=C(CCN2CCOCC2)c2ccccc2/C1=C/c1ccco1 [Compound 31, 4-{2-[(1E)-1-(furan-2-ylmethylidene)-1H-inden-3-yl]ethyl} morpholine]
CB2R
  Ki: 1260 nM

## C[N+]1(CCC2=C/C(=C\c3cccc4ccccc34)c3ccccc32)CCOCC1 [Compound 35, 4-methyl-4-{2-[(1E)-1-(naphthalen-1-ylmethylidene)-1H-inden-3-yl]ethyl} morpholin-4-ium iodide]
CB1R; [1]
  Ki: 982 nM

## CC1=C(CC[N+]2(C)CCOCC2)c2ccccc2/C1=C/c1cccc2ccccc12 [Compound 36, 4-methyl-4-{2-[(1E)-2-methyl-1-(naphthalen-1-ylmethylidene)-1H-inden-3-yl]ethyl} morpholin-4-ium iodide]
CB1R; [1]
  Ki: 1610 nM

## C1=C(CCN2CCOCC2)c2ccccc2/C1=C/c1cccc(-c2ccccc2)c1 [Compound 37, 4-{2-[(1E)-1-[(3-phenylphenyl)methylidene]-1H-inden-3-yl]ethyl} morpholine]
CB1R; [1]
  Ki: 2600 nM
CB2R
  Ki: 132 nM

## CCCCCCC1=C/C(=C\Cc2ccccc2)c2ccccc21 [Compound 38, (1E)-3-hexyl-1-(2-phenyl-ethylidene)-1H-indene]
CB1R
  Ki: 4410 nM
CB2R
  Ki: 13700 nM

## O=C(c1cccc2ccccc12)c1cn(CCN2CCOCC2)c2ccccc12 [Compound 39, 1-[2-(morpholin-4-yl)ethyl]-3-(naphthalene-1-carbonyl)-1H-indole, reference compound]
CB1R; [1]
  Ki: 81.6 nM

## COc1ccc(C(=O)c2cn(CC[N+]3(C)CCOCC3)c3ccccc23)c2ccccc12 [Compound 41, 4-{2-[3-(4-methoxynaphth-alene-1-carbonyl)-1H-indol-1-yl]ethyl}-4-methylmorpholin-4-ium iodide]
CB1R; [1]
  Ki: 4080 nM

## COc1ccc(C(=O)c2cn(CCN3CCOCC3)c3ccccc23)c2ccccc12 [Compound 42, 3-(4-methoxynaphtha-lene-1-carbonyl)-1-[2-(morpholin-4-yl)ethyl]-1H-indole, reference compound]
CB1R; [1]
  Ki: 88.1 nM

## Cc1ccc(C(=O)c2cn(CC[N+]3(C)CCOCC3)c3ccccc23)c2ccccc12 [Compound 43, 4-methyl-4-{2-[3-(4-methyl-naphthalene-1-carbonyl)-1H-indol-1-yl]ethyl}morpholin-4-ium iodide]
CB1R; [1]
  Ki: 4170 nM

## Cc1ccc(C(=O)c2cn(CCN3CCOCC3)c3ccccc23)c2ccccc12 [Compound 44, 3-(4-methyl-naphthalene-1-carbonyl)-1-[2-(morpholin-4-yl)ethyl]-1H-indole, reference compound]
CB1R; [1]
  Ki: 20.2 nM

## CCOC(=O)CCCn1cc(C(=O)c2cccc3ccccc23)c2ccccc21 [Compound 50, ethyl 4-[3-(naphthalene-1-carbonyl)-1H-indol-1-yl]butanoate]
CB1R; [1]
  Ki: 747 nM

## CCOC(=O)CCCCn1cc(C(=O)c2cccc3ccccc23)c2ccccc21 [Compound 53, ethyl 5-[3-(naphthalene-1-carbonyl)-1H-indol-1-yl]pentanoate]
CB1R; [1]
  Ki: 1470 nM

## CCCCCn1cc(C(=O)c2ccc(C(=O)OCC)c3ccccc23)c2ccccc21 [Compound 58, ethyl 4-(1-pentyl-1H-indole-3-carbonyl)naphth-alene-1-carboxylate]
CB1R; [1]
  Ki: 115 nM
CB2R
  Ki: 53.9 nM

## CCCCCn1cc(C(=O)c2ccc(C(N)=O)c3ccccc23)c2ccccc21 [Compound 59, 4-(1-pentyl-1H-indole-3-carbonyl)naph-thalene-1-carboxamide]
CB1R; [1]
  Ki: 96.6 nM
CB2R
  Ki: 135 nM

## CCCCCn1cc(C(=O)c2ccc(C(=O)NC)c3ccccc23)c2ccccc21 [Compound 60, N-methyl-4-(1-pentyl-1H-indole-3-carbonyl) naphthalene-1-carboxamide]
CB1R; [1]
  Ki: 127 nM
CB2R
  Ki: 303 nM

## O=C(c1cccc2ccccc12)c1cn(CCCCCF)c2cccc(F)c12 [Compound 66, 4-fluoro-1-(5-fluoropentyl)-3-(naphthalene-1-carbonyl)-1H-indole]
CB1R; [1]
  Ki: 4.38 nM
CB2R
  Ki: 2.94 nM

## O=C(c1cccc2ccccc12)c1cn(CCN2CCOCC2)c2cccc(F)c12 [Compound 68, 4-fluoro-1-[2-(morpholin-4-yl)ethyl]-3-(naphthalene-1-carbonyl)-1H-indole]
CB1R; [1]
  Ki: 237 nM
CB2R
  Ki: 95.2 nM
